Biological target: Coagulation factor XI (Homo sapiens, UniProt P03951)
Experiment: Inhibition Assay: The effectiveness of compounds of the present invention as inhibitors of the coagulation factors XIa, Vila, IXa, Xa, Xlla, plasma kallikrein or thrombin, can be determined using a relevant purified serine protease, respectively, and an appropriate synthetic substrate. The rate of hydrolysis of the chromogenic or fluorogenic substrate by the relevant serine protease was measured both in the absence and presence of compounds of the present invention. […] A decrease in the rate of absorbance or fluorescence change in the presence of inhibitor is indicative of enzyme inhibition. Such methods are known to one skilled in the art.

Coagulation factor XI, sequence (P03951 19-387 limits assumed): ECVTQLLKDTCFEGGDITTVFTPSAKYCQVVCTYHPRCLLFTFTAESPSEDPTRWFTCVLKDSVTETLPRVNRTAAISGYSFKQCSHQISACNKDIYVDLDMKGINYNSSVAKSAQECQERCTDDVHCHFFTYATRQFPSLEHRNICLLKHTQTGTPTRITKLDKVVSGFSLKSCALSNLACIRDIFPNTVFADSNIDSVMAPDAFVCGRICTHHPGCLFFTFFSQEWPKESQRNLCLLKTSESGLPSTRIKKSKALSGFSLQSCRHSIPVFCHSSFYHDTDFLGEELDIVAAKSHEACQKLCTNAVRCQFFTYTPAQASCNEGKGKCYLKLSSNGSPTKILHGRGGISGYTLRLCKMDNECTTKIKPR
Coagulation factor XI, sequence (P03951 388-625 limits assumed): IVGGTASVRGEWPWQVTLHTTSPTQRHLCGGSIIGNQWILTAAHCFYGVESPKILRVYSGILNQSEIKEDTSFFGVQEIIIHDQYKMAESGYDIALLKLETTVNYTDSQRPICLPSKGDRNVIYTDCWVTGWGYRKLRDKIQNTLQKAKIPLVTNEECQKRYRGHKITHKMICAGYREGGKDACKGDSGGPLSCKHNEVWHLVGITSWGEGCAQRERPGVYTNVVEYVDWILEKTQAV

`COC(=O)Nc1cccc(NC(=O)[C@@H]2c3ccccc3CCN2C(=O)/C=C/c2cc(Cl)ccc2-n2cnnn2)c1` was tested, and the Ki was 2.79 µM.
